Results as given in patent publication US20090162413A1 (priority 1998, published 2009).
Values belong to the compound of their own block, whether it stands above or below them.

Legend:
[1] = test system: human coronary artery smooth muscle cells (hCaSMC); experiment: 3H-thymidine uptake proliferation assay, hCaSMC; assay type: cell-based
Experimental: Experiments were performed to investigate interactions between zotarolimus (ABT-578) and paclitaxel when administered in combination. The effects of paclitaxel and zotarolimus on the anti-proliferative activity of human coronary artery smooth muscle ([…]) and endothelial […] determined using an in vitro proliferation assay. The proliferation and migration of vascular smooth muscle cells into the vascular neointima is a characteristic pathologic response seen in restenotic lesions (Lafont and Libby, 1998). As a result, in vitro assays which specifically measure the anti-proliferative activity of candidate anti-restenotic compounds on human coronary artery smooth muscle and endothelial cells predict potential anti-restenotic activity in vivo. Compounds or combinations of compounds which attenuate growth factor-mediated human coronary artery smooth muscle cell ([…]) proliferation, as measured by the tritium incorporation assay in vitro, are candidate anti-restenotic agents. The tritium incorporation assay is an accurate and sensitive method to determine cell number and proliferation. […] The attenuation of zotarolimus's anti-proliferative activity by tacrolimus is a clear example of this effect (FIG. 10A). To determine the potential anti-restenotic activity of combinations of zotarolimus and paclitaxel, the proliferation of […] was measured in the presence of each compound and in combination. To determine if paclitaxel attenuated or augmented the activity of zotarolimus the effect of paclitaxel and zotarolimus alone and in combination on growth-factor induced proliferation was determined. Data were analyzed for additivity using an isobologram approach and a combination index analysis. An isobologram is a Cartesian plot of pairs of doses that, in combination, yield a specified level of effect. It is a convenient way of graphically displaying results of drug-combination and similar studies, because paired values of experimental points that fall below or above the line connecting the axial points indicate synergistic and non-synergistic interactions, respectively. Cell proliferation was monitored by following incorporation of ^3H-thymidine into newly synthesized DNA of cells stimulated by serum and growth factors. Exponentially growing […] were seeded into 96-well flat bottom tissue culture plates at 5,000 cells/well (10,000 cells/well for […]). The cells were allowed to attach overnight. The growth medium was removed the following day, and cells were washed twice with un-supplemented (basal) medium to remove traces of serum and growth factors. […] PerkinElmer; Wellesley; MA) was added to each filter well and the plates were counted using a TopCount microplate scintillation counter (PerkinElmer). […]

[2] = test system: Human MLR; experiment: human mixed lymphocyte reaction (MLR) assay; assay type: cell-based; details: read-out: Human MLR IC50 ± S.E.M.
[3] = cynomolgus monkey, in vivo, iv, 2.5 mg/kg
[4] = test system: human coronary artery endothelial cells (hCaEC); experiment: 3H-thymidine uptake proliferation assay, hCaEC; assay type: cell-based
Experimental: Experiments were performed to investigate interactions between zotarolimus (ABT-578) and paclitaxel when administered in combination. The effects of paclitaxel and zotarolimus on the anti-proliferative activity of human coronary artery smooth muscle ([…]) and endothelial […] determined using an in vitro proliferation assay. The proliferation and migration of vascular smooth muscle cells into the vascular neointima is a characteristic pathologic response seen in restenotic lesions (Lafont and Libby, 1998). As a result, in vitro assays which specifically measure the anti-proliferative activity of candidate anti-restenotic compounds on human coronary artery smooth muscle and endothelial cells predict potential anti-restenotic activity in vivo. To determine if paclitaxel attenuated or augmented the activity of zotarolimus the effect of paclitaxel and zotarolimus alone and in combination on growth-factor induced proliferation was determined. Data were analyzed for additivity using an isobologram approach and a combination index analysis. An isobologram is a Cartesian plot of pairs of doses that, in combination, yield a specified level of effect. It is a convenient way of graphically displaying results of drug-combination and similar studies, because paired values of experimental points that fall below or above the line connecting the axial points indicate synergistic and non-synergistic interactions, respectively. Cell proliferation was monitored by following incorporation of ^3H-thymidine into newly synthesized DNA of cells stimulated by serum and growth factors. Exponentially growing […] were seeded into 96-well flat bottom tissue culture plates at 5,000 cells/well (10,000 cells/well for […]). The cells were allowed to attach overnight. […] PerkinElmer; Wellesley; MA) was added to each filter well and the plates were counted using a TopCount microplate scintillation counter (PerkinElmer). […] The concentration eliciting a specific anti-proliferative effect was determined using a four-parameter equation (equation 1): […]

[5] = accelerated in vitro elution from PC1036 coated drug-loaded stents (Example 10); assay type: physicochemical; details: stents with 10 μg/mm zotarolimus alone or with paclitaxel

Compound: C=CC[C@@H]1/C=C(\C)C[C@H](C)C[C@H](OC)[C@H]2O[C@@](O)(C(=O)C(=O)N3CCCC[C@H]3C(=O)O[C@H](/C(C)=C/[C@@H]3CC[C@@H](O)[C@H](OC)C3)[C@H](C)[C@@H](O)CC1=O)[C@H](C)C[C@@H]2OC [tacrolimus]
effect on the anti-proliferative activity of zotarolimus ([1]; smooth muscle cells in vitro, FIG. 10A): blocks the anti-proliferative activity of zotarolimus

Compound: 40-epi-N-[2′-pyridone]-rapamycin [Example 2-pyridone]
AUC [3]: 2.55 ng·h/mL

Compound: CC(=O)O[C@H]1C(=O)[C@@]2(C)[C@H]([C@H](OC(=O)c3ccccc3)[C@]3(O)C[C@H](OC(=O)[C@H](O)[C@@H](NC(=O)c4ccccc4)c4ccccc4)C(C)=C1C3(C)C)[C@]1(OC(C)=O)CO[C@@H]1C[C@@H]2O [PAC, paclitaxel]
IC50 ([1]; Homo sapiens, read-out: hCaSMC IC50 Mean ± SEM): 3 ± 0.5 nM | effect on the inhibition of proliferation by zotarolimus ([1]; hCaSMC, FIG. 10B): not blocked | IC50 ([4]; Homo sapiens, Endothelial cell, read-out: hCaEC IC50 Mean ± SEM): 4.6 ± 0.3 nM | effect on the inhibition of proliferation by zotarolimus ([4]; hCaEC, FIG. 10C): not blocked | effect on the elution profile of zotarolimus [5]: little effect

More lines, now with the values ahead:

IC50 [2]: 0.91 ± 0.36 nM
Compound: CO[C@H]1C[C@@H]2CC[C@@H](C)[C@@](O)(O2)C(=O)C(=O)N2CCCC[C@H]2C(=O)O[C@H]([C@H](C)C[C@@H]2CC[C@@H](O)[C@H](OC)C2)CC(=O)[C@H](C)/C=C(\C)[C@@H](O)[C@@H](OC)C(=O)[C@H](C)C[C@H](C)/C=C/C=C/C=C/1C [Rapamycin]

AUC [3]: 5.59 ng·h/mL
Compound: COC1CC2CCC(C)C(O)(O2)C(=O)C(=O)N2CCCCC2C(=O)OC(C(C)CC2CCC(n3ccc(=O)cc3)C(OC)C2)CC(=O)C(C)C=C(C)C(O)C(OC)C(=O)C(C)CC(C)C=CC=CC=C1C (stereo not drawn) [Example 4-pyridone, 40-epi-N-[4′-pyridone]-rapamycin]
